Measured values as given in patent US9302999B2, “Substituted triazoles as herbicides” (E. I. DU PONT DE NEMOURS AND COMPANY, priority 2012, dated 2016).

Tests used:
Format in all cases: in vivo
[1] = test system: barnyardgrass (Echinochloa crus-galli); assay: Test A pre-/postemergence: barnyardgrass; conditions: for Barnyardgrass plant response rating: visual rating on 0 to 100 scale (0 no effect, 100 complete control), approximately ten days
Method in brief: (§1)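 Compounds, formulated with surfactant in non-phytotoxic solvent, were applied as a directed soil spray preemergence and as postemergence sprays to 2–10 cm, one- to two-leaf seedlings grown in loam soil blended with sand; visual injury, 0–100, assessed ~10 days post-treatment against untreated controls.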

[2] = test system: foxtail, giant (giant foxtail, Setaria faberii); assay: Test A pre-/postemergence: foxtail, giant; conditions: for Foxtail, Giant plant response rating: visual rating on 0 to 100 scale (0 no effect, 100 complete control), approximately ten days
Method in brief: as §1

[3] = test system: morningglory (Ipomoea spp.); assay: Test A pre-/postemergence: morningglory; conditions: for Morningglory plant response rating: visual rating on 0 to 100 scale (0 no effect, 100 complete control), approximately ten days
Method in brief: as §1

[4] = test system: pigweed (Amaranthus retroflexus); assay: Test A pre-/postemergence: pigweed; conditions: for Pigweed plant response rating: visual rating on 0 to 100 scale (0 no effect, 100 complete control), approximately ten days
Method in brief: as §1

[5] = test system: wheat (Triticum aestivum); assay: Test A pre-/postemergence: wheat; conditions: for Wheat plant response rating: visual rating on 0 to 100 scale (0 no effect, 100 complete control), approximately ten days
Method in brief: as §1

[6] = test system: winter wheat (Triticum aestivum); assay: Test C pre-/postemergence: winter wheat
Method in brief: (§2)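 Visual injury scored 0–100 (100 = complete control) against untreated controls after 13–15 greenhouse days. Surfactant-containing solvent formulations applied either to soil after sowing (loam/sand) or over 1- to 4-leaf plants, 2–18 cm tall.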

corn (Zea mays) = assay: Test C pre-/postemergence: corn
Method in brief: as §2

[7] = test system: johnsongrass (Sorghum halepense); assay: Test C pre-/postemergence: johnsongrass
Method in brief: as §2

[8] = test system: morningglory (Ipomoea coccinea); assay: Test C pre-/postemergence: morningglory
Method in brief: as §2

[9] = test system: nutsedge, yellow (yellow nutsedge, Cyperus esculentus); assay: Test C pre-/postemergence: nutsedge, yellow
Method in brief: as §2

[10] = test system: velvetleaf (Abutilon theophrasti); assay: Test C pre-/postemergence: velvetleaf
Method in brief: as §2

[11] = test system: chickweed (common chickweed, Stellaria media); assay: Test C postemergence: chickweed
Method in brief: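 Seedlings are raised in pots of peat-based medium to 2–18 cm (1- to 4-leaf stage). The formulated compound is then applied postemergence. Plants stay in the greenhouse for 13 to 15 days and are rated visually against controls, where 0 means no effect and 100 complete control.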

[12] = Postemergence, 125 g ai/ha, 0 to 100 scale, 0 is no effect, 100 is complete control
[13] = Preemergence, 125 g ai/ha, 0 to 100 scale where 0 is no effect and 100 is complete control
[14] = Preemergence, 500 g ai/ha, 0 to 100 scale (0 no effect, 100 complete control)
[15] = Postemergence, 31 g ai/ha, scale 0 to 100 (0 no effect, 100 complete control)
[16] = Postemergence, 62 g ai/ha, scale 0 to 100 (0 no effect, 100 complete control)
[17] = Postemergence, 125 g ai/ha, scale 0 to 100, 0 no effect, 100 complete control
[18] = Postemergence, 250 g ai/ha, scale 0 to 100
[19] = Preemergence, 62 g ai/ha, scale of 0 to 100, 0 is no effect, 100 is complete control
[20] = Preemergence, 125 g ai/ha, scale 0 to 100, 0 no effect, 100 complete control
[21] = Preemergence, 250 g ai/ha, scale 0 to 100, 0 no effect, 100 complete control
[22] = Preemergence, 31 g ai/ha, scale of 0 to 100, 0 is no effect, 100 is complete control
[23] = 31 g ai/ha, scale 0 to 100 (0 no effect, 100 complete control)
[24] = 62 g ai/ha, scale 0 to 100 (0 no effect, 100 complete control)
[25] = 125 g ai/ha, scale 0 to 100, 0 no effect, 100 complete control

Compound: CCCc1nn(-c2ccc(F)cc2)nc1Cc1ccnc(C(F)(F)F)c1 [Compound 153]
- Plant response rating, Barnyardgrass [1, 12]: 90
- Barnyardgrass plant response rating ([1]; Postemergence, 500 g ai/ha): 90
- Plant response rating, Barnyardgrass [1, 13]: 100
- Plant response rating, Barnyardgrass [1, 14]: 100
- Plant response rating, Foxtail, Giant [2, 12]: 90
- Foxtail, Giant plant response rating ([2]; Postemergence, 500 g ai/ha): 100
- Plant response rating, Foxtail, Giant [2, 13]: 100
- Plant response rating, Foxtail, Giant [2, 14]: 100
- Plant response rating, Morningglory [3, 12]: 90
- Morningglory plant response rating ([3]; Postemergence, 500 g ai/ha): 100
- Plant response rating, Morningglory [3, 13]: 80
- Plant response rating, Morningglory [3, 14]: 100
- Plant response rating, Pigweed [4, 12]: 100
- Pigweed plant response rating ([4]; Postemergence, 500 g ai/ha): 100
- Plant response rating, Pigweed [4, 13]: 100
- Plant response rating, Pigweed [4, 14]: 100
- Plant response rating, Wheat [5, 12]: 60
- Wheat plant response rating ([5]; Postemergence, 500 g ai/ha): 70
- Plant response rating, Wheat [5, 13]: 50
- Plant response rating, Wheat [5, 14]: 70
- Plant response rating, Wheat [6, 15]: 10
- Plant response rating, Wheat [6, 16]: 30
- Plant response rating, Wheat [6, 17]: 30
- Plant response rating, Wheat [6, 18]: 30
- Plant response rating, Wheat [6, 19]: 35
- Plant response rating, Wheat [6, 20]: 60
- Plant response rating, Wheat [6, 21]: 60
- Plant response rating, Corn (corn (Zea mays); [15]): 20
- Plant response rating, Corn (corn (Zea mays); [16]): 25
- Plant response rating, Corn (corn (Zea mays); [17]): 45
- Plant response rating, Corn (corn (Zea mays); [18]): 55
- Plant response rating, Corn (corn (Zea mays); [22]): 10
- Plant response rating, Corn (corn (Zea mays); [19]): 25
- Plant response rating, Corn (corn (Zea mays); [20]): 25
- Plant response rating, Corn (corn (Zea mays); [21]): 35
- Plant response rating, Johnsongrass [7, 15]: 40
- Plant response rating, Johnsongrass [7, 17]: 60
- Plant response rating, Johnsongrass [7, 18]: 90
- Plant response rating, Johnsongrass [7, 22]: 90
- Plant response rating, Johnsongrass [7, 19]: 90
- Plant response rating, Johnsongrass [7, 20]: 95
- Plant response rating, Johnsongrass [7, 21]: 98
- Plant response rating, Morningglory [8, 15]: 40
- Plant response rating, Morningglory [8, 16]: 80
- Plant response rating, Morningglory [8, 17]: 95
- Plant response rating, Morningglory [8, 18]: 95
- Plant response rating, Morningglory [8, 22]: 20
- Plant response rating, Morningglory [8, 19]: 30
- Plant response rating, Morningglory [8, 20]: 50
- Plant response rating, Morningglory [8, 21]: 50
- Plant response rating, Nutsedge, Yellow [9, 15]: 10
- Plant response rating, Nutsedge, Yellow [9, 16]: 10
- Plant response rating, Nutsedge, Yellow [9, 17]: 15
- Plant response rating, Nutsedge, Yellow [9, 18]: 15
- Plant response rating, Nutsedge, Yellow [9, 22]: 0
- Plant response rating, Nutsedge, Yellow [9, 19]: 0
- Plant response rating, Nutsedge, Yellow [9, 20]: 5
- Plant response rating, Velvetleaf [10, 15]: 50
- Plant response rating, Velvetleaf [10, 16]: 60
- Plant response rating, Velvetleaf [10, 17]: 65
- Plant response rating, Velvetleaf [10, 18]: 95
- Plant response rating, Velvetleaf [10, 19]: 85
- Plant response rating, Velvetleaf [10, 20]: 95
- Plant response rating, Velvetleaf [10, 21]: 100
- Plant response rating, Chickweed [11, 23]: 95
- Plant response rating, Chickweed [11, 24]: 95
- Plant response rating, Chickweed [11, 25]: 95
- Plant response rating, Chickweed ([11]; 250 g ai/ha, scale 0 to 100): 95

Compound: Cc1nn(-c2ccc(C(F)(F)F)c(F)c2)nc1Cc1ccnc(C(F)(F)F)c1 [Compound 162]
- Plant response rating, Barnyardgrass [1, 12]: 80
- Barnyardgrass plant response rating ([1]; Postemergence, 500 g ai/ha): 90
- Plant response rating, Barnyardgrass [1, 13]: 90
- Plant response rating, Barnyardgrass [1, 14]: 100
- Plant response rating, Foxtail, Giant [2, 12]: 90
- Foxtail, Giant plant response rating ([2]; Postemergence, 500 g ai/ha): 90
- Plant response rating, Foxtail, Giant [2, 13]: 100
- Plant response rating, Foxtail, Giant [2, 14]: 100
- Plant response rating, Morningglory [3, 12]: 90
- Morningglory plant response rating ([3]; Postemergence, 500 g ai/ha): 90
- Plant response rating, Morningglory [3, 13]: 30
- Plant response rating, Morningglory [3, 14]: 90
- Plant response rating, Pigweed [4, 12]: 100
- Pigweed plant response rating ([4]; Postemergence, 500 g ai/ha): 100
- Plant response rating, Pigweed [4, 13]: 100
- Plant response rating, Pigweed [4, 14]: 100
- Plant response rating, Wheat [5, 12]: 20
- Wheat plant response rating ([5]; Postemergence, 500 g ai/ha): 30
- Plant response rating, Wheat [5, 13]: 10
- Plant response rating, Wheat [5, 14]: 30
- Plant response rating, Wheat [6, 15]: 20
- Plant response rating, Wheat [6, 16]: 20
- Plant response rating, Wheat [6, 17]: 25
- Plant response rating, Wheat [6, 18]: 25
- Plant response rating, Wheat [6, 19]: 5
- Plant response rating, Wheat [6, 20]: 20
- Plant response rating, Wheat [6, 21]: 35
- Plant response rating, Corn (corn (Zea mays); [15]): 15
- Plant response rating, Corn (corn (Zea mays); [16]): 30
- Plant response rating, Corn (corn (Zea mays); [17]): 30
- Plant response rating, Corn (corn (Zea mays); [18]): 40
- Plant response rating, Corn (corn (Zea mays); [22]): 5
- Plant response rating, Corn (corn (Zea mays); [19]): 20
- Plant response rating, Corn (corn (Zea mays); [20]): 20
- Plant response rating, Corn (corn (Zea mays); [21]): 35
- Plant response rating, Johnsongrass [7, 15]: 45
- Plant response rating, Johnsongrass [7, 16]: 80
- Plant response rating, Johnsongrass [7, 17]: 80
- Plant response rating, Johnsongrass [7, 18]: 98
- Plant response rating, Johnsongrass [7, 22]: 35
- Plant response rating, Johnsongrass [7, 19]: 60
- Plant response rating, Johnsongrass [7, 20]: 98
- Plant response rating, Johnsongrass [7, 21]: 98
- Plant response rating, Morningglory [8, 22]: 55
- Plant response rating, Morningglory [8, 19]: 60
- Plant response rating, Morningglory [8, 20]: 80
- Plant response rating, Morningglory [8, 21]: 85
- Plant response rating, Nutsedge, Yellow [9, 15]: 5
- Plant response rating, Nutsedge, Yellow [9, 16]: 5
- Plant response rating, Nutsedge, Yellow [9, 17]: 5
- Plant response rating, Nutsedge, Yellow [9, 18]: 10
- Plant response rating, Nutsedge, Yellow [9, 22]: 0
- Plant response rating, Nutsedge, Yellow [9, 19]: 0
- Plant response rating, Nutsedge, Yellow [9, 20]: 5
- Plant response rating, Nutsedge, Yellow [9, 21]: 5
- Plant response rating, Velvetleaf [10, 15]: 35
- Plant response rating, Velvetleaf [10, 16]: 55
- Plant response rating, Velvetleaf [10, 17]: 60
- Plant response rating, Velvetleaf [10, 18]: 85
- Plant response rating, Velvetleaf [10, 22]: 55
- Plant response rating, Velvetleaf [10, 19]: 80
- Plant response rating, Velvetleaf [10, 20]: 100
- Plant response rating, Velvetleaf [10, 21]: 100
- Plant response rating, Chickweed [11, 23]: 100
- Plant response rating, Chickweed [11, 24]: 100
- Plant response rating, Chickweed [11, 25]: 100
- Plant response rating, Chickweed ([11]; 250 g ai/ha, scale 0 to 100): 100
